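Where inhibition never reached the appropriate level, the endpoint shown equals the highest concentration tested. Otherwise, values were interpolated linearly from a five-concentration, 48-hour dose response in 96-well plates. TGI denotes the concentration required for complete inhibition of growth.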
Columns and labels:
Assay in all cases: growth of human tumour cells (NCI), 48 h
[1] = test system: HCT-15 colon
[2] = test system: EKVX NSCLC
[3] = test system: SK-OV-3 ovarian
[4] = test system: OVCAR-3 ovarian
[5] = test system: MALME-3M melanoma
[6] = test system: LOX IMVI melanoma
[7] = test system: A498 renal
[8] = test system: ACHN renal
[9] = test system: BT-549 breast
[10] = test system: NCI-H226 lung
[11] = test system: UACC-257 melanoma
[12] = test system: HS 578T breast
[13] = test system: SN12C renal
[14] = test system: SR leukemia
[15] = test system: MDA-N
[16] = test system: SF-268 CNS
[17] = test system: T-47D breast
[18] = test system: MCF7 breast
[19] = test system: DU-145 prostate
[20] = test system: TK-10 renal
[21] = test system: UO-31 renal
[22] = test system: U251 CNS
[23] = test system: KM12 colon
[24] = test system: CAKI-1 renal
[25] = test system: NCI-H522 lung
[26] = test system: K-562 leukemia
[27] = test system: RXF 393 renal
[28] = test system: HL-60(TB) leukemia
[29] = test system: SW-620 colon
[30] = test system: M14 melanoma
[31] = test system: PC-3 prostate
[32] = test system: SF-295 CNS
[33] = test system: CCRF-CEM leukemia
[34] = test system: MDA-MB-435
[35] = test system: SNB-75 CNS
[36] = test system: MDA-MB-231 breast
[37] = test system: NCI-H23 lung
[38] = test system: 786-0 renal
[39] = test system: A549 NSCLC
[40] = test system: RPMI-8226 leukemia
[41] = test system: SK-MEL-28 melanoma
[42] = test system: SF-539 CNS
[43] = test system: UACC-62 melanoma
[44] = test system: HOP-62 NSCLC
[45] = test system: OVCAR-8 ovarian
[46] = test system: HCC-2998 colon
[47] = test system: NCI/ADR-RES ovarian
[48] = test system: HCT-116 colon
[49] = test system: OVCAR-4 ovarian
[50] = test system: HOP-92 NSCLC
[51] = test system: NCI-H460 lung
[52] = test system: IGROV1 ovarian
[53] = test system: HT29 colon
[54] = test system: SK-MEL-2 melanoma
[55] = test system: COLO 205 colon
[56] = test system: MOLT-4 leukemia
[57] = test system: OVCAR-5 ovarian
[58] = test system: SNB-19 CNS
[59] = test system: SK-MEL-5 melanoma

C/C(=N\NC(=S)NCCNC(=S)N/N=C(\C)c1ccccn1)c1ccccn1
TGI [1]: > 25.9 µM
TGI [2]: > 100 µM
TGI [3]: > 100 µM
TGI [4]: > 100 µM
TGI [5]: > 78.8 µM
TGI [6]: 30.9 µM
TGI [7]: 37.5 µM
TGI [8]: > 28.5 µM
TGI [9]: 47.8 µM
TGI [10]: > 26.9 µM
TGI [11]: 22.3 µM
TGI [12]: > 100 µM
TGI [13]: 7.31 µM
TGI [14]: 2.53 µM
TGI [15]: > 100 µM
TGI [16]: 49 µM
TGI [17]: > 29.3 µM
TGI [18]: > 100 µM
TGI [19]: > 100 µM
TGI [20]: > 30 µM
TGI [21]: > 100 µM
TGI [22]: > 48.6 µM
TGI [23]: > 100 µM
TGI [24]: > 89.7 µM
TGI [25]: > 100 µM
TGI [26]: > 100 µM
TGI [27]: > 100 µM
TGI [28]: > 22.6 µM
TGI [29]: > 100 µM
TGI [30]: 4.27 µM
TGI [31]: > 100 µM
TGI [32]: > 100 µM
TGI [33]: > 26.1 µM
TGI [34]: > 100 µM
TGI [35]: 11.2 µM
TGI [36]: > 70.9 µM
TGI [37]: > 63.8 µM
TGI [38]: 6.05 µM
TGI [39]: > 100 µM
TGI [40]: 9.67 µM
TGI [41]: > 100 µM
TGI [42]: 6.63 µM
TGI [43]: 11.7 µM
TGI [44]: 12.5 µM
TGI [45]: > 100 µM
TGI [46]: > 100 µM
TGI [47]: 6.06 µM
TGI [48]: 31.4 µM
TGI [49]: > 71.2 µM
TGI [50]: > 100 µM
TGI [51]: > 20.2 µM
TGI [52]: > 31.5 µM
TGI [53]: > 100 µM
TGI [54]: > 100 µM
TGI [55]: > 29.2 µM
TGI [56]: > 26 µM
TGI [57]: > 100 µM
TGI [58]: > 100 µM

Cc1sccc1C(=S)Nc1ccc(Cl)c(/C=N/OC(C)(C)C)c1
TGI [1]: 29 µM
TGI [2]: 42.4 µM
TGI [3]: 79.3 µM
TGI [4]: 26.8 µM
TGI [5]: 31.1 µM
TGI [6]: 73.9 µM
TGI [7]: 46.8 µM
TGI [9]: 35.2 µM
TGI [10]: 29.3 µM
TGI [11]: 35.1 µM
TGI [12]: 62.3 µM
TGI [13]: 25.6 µM
TGI [14]: 54.7 µM
TGI [15]: 26.9 µM
TGI [16]: 43.9 µM
TGI [17]: 22.8 µM
TGI [18]: 26.7 µM
TGI [19]: 29 µM
TGI [20]: 36.9 µM
TGI [21]: 25 µM
TGI [22]: 62.1 µM
TGI [23]: 28.8 µM
TGI [24]: 24.4 µM
TGI [25]: 26.5 µM
TGI [27]: 39 µM
TGI [28]: 38.6 µM
TGI [29]: > 100 µM
TGI [30]: 33.9 µM
TGI [31]: 32.5 µM
TGI [32]: 37.3 µM
TGI [33]: > 100 µM
TGI [34]: 50.9 µM
TGI [59]: 25.9 µM
TGI [35]: > 100 µM
TGI [36]: 27 µM
TGI [37]: 34.5 µM
TGI [38]: 49.4 µM
TGI [39]: 63.5 µM
TGI [40]: 27 µM
TGI [41]: 71 µM
TGI [42]: > 100 µM
TGI [43]: 34.2 µM
TGI [44]: 30.6 µM
TGI [45]: 34.1 µM
TGI [46]: 30 µM
TGI [47]: 45.1 µM
TGI [48]: > 100 µM
TGI [49]: 32 µM
TGI [50]: 35.3 µM
TGI [52]: 29.4 µM
TGI [53]: 27.6 µM
TGI [54]: 28.8 µM
TGI [55]: 27.3 µM
TGI [56]: 30.7 µM
TGI [57]: 34.7 µM

COC(=O)NC(Nc1ccc(Cl)cc1Cl)(C(F)(F)F)C(F)(F)F
TGI [1]: > 100 µM
TGI [2]: > 100 µM
TGI [3]: > 100 µM
TGI [4]: > 100 µM
TGI [5]: > 100 µM
TGI [6]: > 100 µM
TGI [7]: > 100 µM
TGI [8]: > 100 µM
TGI [9]: > 100 µM
TGI [10]: > 100 µM
TGI [11]: > 100 µM
TGI [12]: > 100 µM
TGI [13]: > 100 µM
TGI [14]: > 100 µM
TGI [15]: > 100 µM
TGI [16]: > 100 µM
TGI [17]: > 100 µM
TGI [18]: > 100 µM
TGI [19]: > 100 µM
TGI [20]: > 100 µM
TGI [21]: 94.7 µM
TGI [22]: > 100 µM
TGI [23]: > 100 µM
TGI [24]: > 100 µM
TGI [25]: > 100 µM
TGI [26]: > 100 µM
TGI [27]: > 100 µM
TGI [28]: > 100 µM
TGI [29]: > 100 µM
TGI [30]: > 100 µM
TGI [31]: > 100 µM
TGI [32]: > 100 µM
TGI [33]: > 100 µM
TGI [34]: > 100 µM
TGI [59]: > 100 µM
TGI [35]: > 100 µM
TGI [36]: > 100 µM
TGI [37]: > 100 µM
TGI [38]: > 100 µM
TGI [39]: > 100 µM
TGI [40]: > 100 µM
TGI [41]: > 100 µM
TGI [42]: > 100 µM
TGI [43]: > 100 µM
TGI [44]: > 100 µM
TGI [45]: > 100 µM
TGI [46]: > 100 µM
TGI [47]: > 100 µM
TGI [48]: > 100 µM
TGI [50]: > 100 µM
TGI [51]: > 100 µM
TGI [52]: > 100 µM
TGI [53]: > 100 µM
TGI [54]: > 100 µM
TGI [55]: > 100 µM
TGI [56]: > 100 µM
TGI [57]: > 100 µM
TGI [58]: > 100 µM

Reference: PubChem BioAssay (NCI)
